From patent US7247628B2, “Cannabinoid receptor ligands and uses thereof” (Pfizer, Inc., priority 2002, dated 2007)

Molecular target: T1, CB-1 receptor (Homo sapiens, UniProt P21554)
T1 construct: expressed in transfected cells; host or cells: HEK 293 cells (membrane preparation); cDNA obtained from Dr. Debra Kendall, University of Connecticut
Experiment: Human CB-1 receptor binding ([3H]SR141716A displacement)
Settings: CB-1 receptor binding assay, inhibition of [3H] SR141716A binding
Description: Human embryonic kidney 293 (HEK 293) cells transfected with the CB-1 receptor cDNA (obtained from Dr. Debra Kendall, University of Connecticut) were harvested in homogenization buffer (10 mM EDTA, 10 mM EGTA, 10 mM Na Bicarbonate, protease inhibitors; pH=7.4), and homogenized with a Dounce Homogenizer. The homogenate was then spun at 1,000×g for 5 minutes at 4° C. The supernatant was recovered and centrifuged at 25,000×G for 20 minutes at 4° C. The pellet was then re-suspended in 10 ml of homogenization buffer and re-spun at 25,000×G for 20 minutes at 4° C. The final pellet was re-suspended in 1 ml of TME (25 mM Tris buffer (pH=7.4) containing 5 mM MgCl2 and 1 mM EDTA). A protein assay was performed and 200 μl of tissue totaling 20 μg was added to the assay.
The test compounds were diluted in drug buffer (0.5% BSA, 10% DMSO and TME) and then 25 μl were added to a deep well polypropylene plate. [^3H] SR141716A was diluted in a ligand buffer (0.5% BSA plus TME) and 25 μl were added to the plate. The plates were covered and placed in an incubator at 30° C. for 60 minutes. At the end of the incubation period 250 μl of stop buffer (5% BSA plus TME) was added to the reaction plate. […] In the morning the filters were counted on a Wallac Betaplate™ counter (available from PerkinElmer Life Sciences™, Boston, Mass.).

T1 sequence (P21554 whole entry): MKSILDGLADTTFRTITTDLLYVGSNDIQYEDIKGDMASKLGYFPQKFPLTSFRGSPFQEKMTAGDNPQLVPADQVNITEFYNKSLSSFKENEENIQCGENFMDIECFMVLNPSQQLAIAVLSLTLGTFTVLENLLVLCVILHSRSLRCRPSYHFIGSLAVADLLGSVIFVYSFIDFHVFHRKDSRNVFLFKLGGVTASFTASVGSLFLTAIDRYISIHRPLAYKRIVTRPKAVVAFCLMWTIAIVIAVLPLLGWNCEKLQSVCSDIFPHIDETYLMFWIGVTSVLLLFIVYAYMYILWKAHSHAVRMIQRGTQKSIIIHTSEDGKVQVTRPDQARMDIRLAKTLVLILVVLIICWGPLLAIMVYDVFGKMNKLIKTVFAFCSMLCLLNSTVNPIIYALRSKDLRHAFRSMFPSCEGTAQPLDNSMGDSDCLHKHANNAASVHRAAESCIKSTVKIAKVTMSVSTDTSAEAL

binding affinity: 79 nM
SMILES: Cc1cccc(CN2CCOC(c3nn(-c4ccccc4Cl)c(-c4ccc(Cl)cc4)c3C)C2)n1 (stereo not shown) [Example 5A-6, 2-[1-(2-Chlorophenyl)-5-(4-chlorophenyl)-4-methyl-1H-pyrazol-3-yl]-4-(6-methyl-pyridin-2-ylmethyl)-morpholine]
